According to paper PMC10149936, “Cofilin activation in pancreatic acinar cells plays a pivotal convergent role for mediating CCK-stimulated enzyme secretion and growth” (Frontiers in Physiology, 2023):

Legend:
[1] = system: cofilin (pS3) in rat pancreatic acini; assay: cofilin activation (phospho-pS3 cofilin Western blot) in isolated rat pancreatic acini; type: cell-based; settings: for time of return of cofilin phosphorylation to original basal level: CCK-8 0.3 or 100 nM; for time of return of cofilin phosphorylation to original basal level / phosphorylation levels of cofilin with CCK-8 or TPA after cofilin inhibitor: TPA 1 µM; for phosphorylation levels of cofilin with CCK-8 or TPA after cofilin inhibitor / inhibition of cofilin activation stimulated by CCK-8 or TPA: Cytochalasin D 10 µM or Paclitaxel 5 µM, 3 h; for phosphorylation levels of cofilin with CCK-8 or TPA after cofilin inhibitor: CCK-8 0.3 and 100 nM; for inhibition of cofilin activation stimulated by CCK-8 or TPA: CCK-8 0.3 or 100 nM 3 min, TPA 1 µM 5 min
pancreatic acini = assay: amylase release from pancreatic acini (Phadebas); type: cell-based, rat; settings: for increase in amylase release / inhibition of amylase secretion stimulated by CCK-8 and TPA: 30 min; for inhibition of amylase secretion stimulated by CCK-8 and TPA / effect on basal amylase release: Cytochalasin D 10 µM or Paclitaxel 5 µM; for inhibition of amylase secretion stimulated by CCK-8 and TPA: 4 h, CCK-8 0.3 and 100 nM; for effect on basal amylase release: pancreatic acini (Figure 13A)
Method: Pancreatic acini preparations were obtained by collagenase digestion as previously described ([Bissonnette et al., 1984]; [Sato et al., 1989]; [Ramos-Alvarez and Jensen, 2018]). […] Isolated acini and CCK1-R/Panc-1 cells (M&M 2.2.1) were also preincubated with two SSH1 inhibitors, D3 (25 μM, 1 h) ([Li et al., 2015]) or SE (50 μM, 3 h for acini; 24 h for CCK1-R/Panc-1 cells) ([Lee et al., 2017]). After preincubation, 1 mL aliquots of dispersed acini were incubated at 37°C for 3–15 min with CCK-8 (0.3 nM or 100 nM), for 5–15 min with TPA (1 µM) or without stimulants, used as control. Cells were lysed in lysis buffer (50 mM Tris/HCl pH 7.5, 150 mM NaCl, 1% Triton X-100, 1% deoxycholate, 0.1% sodium azide, 1 mM EGTA, 0.4 mM EDTA, 0.2 mM sodium orthovanadate, 1 mM PMSF, and one protease inhibitor tablet per 10 mL). After sonication, lysates were centrifuged at 10,000×g for 15 min at 4°C and protein concentration was measured using the Bio-Rad protein assay reagent. Finally, cells were processed as below for Western blotting.
Amylase release was performed as described previously ([Sato et al., 1989]; [Ramos-Alvarez and Jensen, 2018]). Amylase activity was determined after 30 min incubation using the Phadebas reagent and was expressed as percentage of the total cellular amylase released into the extracellular medium during the incubation ([Ramos-Alvarez and Jensen, 2018]).
FIGURE 13 Effect of two cofilin inhibitors, Cytochalasin D or Paclitaxel, (A, B), or Cofilin siRNA (C), on the ability of CCK/TPA/A71378-stimulated amylase release form pancreatic acini (A) or AR42J cells (B, C). In (A, B) pancreatic acini and AR42J cells were incubated in the absence or presence of Cytochalasin D (10 µM) or Paclitaxel (5 µM) for 4 h and then incubated with no additions (control) or CCK-8 (0.03, 0.3, 1 and 100 nM), TPA (1 µM) or A71378 (0.03 and 1 nM) for 30 min and then lysed. In (B, C) AR42J cells were treated with Dexamethasone (100 nM) for 72 h, and in (C) AR42J cells were transfected with siRNA Non-targeting Control and siRNA against cofilin for 48 h, and then incubated with no addition (control) or CCK-8 (0.03 and 1 nM) and A71378 (0.03 and 1 nM) for 30 min. Amylase release, expressed as percent of cellular total amylase secreted, was determined after 30 min incubation. Means ± S.E. of at least 3 independent experiments. N.S., No significant.

## COOH-terminal octapeptide of cholecystokinin [CCK-8]
[1]; 1 min, CCK-8 100 nM, carbachol 1 μM, bombesin 1 nM, secretin 1 nM or VIP 1 nM, n at least 3
  effect on cofilin phosphorylation (pS3): rapidly decreased cofilin phosphorylation
[1]; 3 min
  concentration with detectible decrease in cofilin phosphorylation: 1 pM
[1]
  time of return of cofilin phosphorylation to original basal level: 60 min
[1]; at 1 nM, 3 min
  maximal dephosphorylation (i.e., activation) of cofilin: 62%
[1]; from comparison with CCK-JMV
  share of CCK-8 stimulation of cofilin activation mediated by the high-affinity state CCK1 receptor: 58%
  share of CCK-8 stimulation of cofilin activation mediated by the low affinity CCK1 receptor state: 42%
[1]; pS3 cofilin, 3 min incubation, at least 3 experiments, mean ± SEM, read-out: half-maximal effect (EC50) for decrease of cofilin phosphorylation
  EC50: 1.8 ± 0.1 pM
Pancreatic acini; CCK-8 0.3 nM
  increase in amylase release: 207%

## C=C1[C@@H](C)[C@H]2[C@H](Cc3ccccc3)NC(=O)[C@]23[C@H](OC(C)=O)/C=C/[C@@](C)(O)C(=O)[C@@H](C)C/C=C/[C@H]3[C@@H]1O [Cytochalasin D]
[1]
  phosphorylation levels of cofilin with CCK-8 or TPA after cofilin inhibitor: significant increase in phosphorylation levels of cofilin
  inhibition of cofilin activation stimulated by CCK-8 or TPA: completely inhibited
Pancreatic acini; TPA 1 µM
  inhibition of amylase secretion stimulated by CCK-8 and TPA: completely inhibited
Pancreatic acini
  effect on basal amylase release: Neither of these two cofilin inhibitors influenced basal amylase release

## CCCCCCCCCCCCCC(=O)O[C@@H]1[C@@H](C)[C@@]2(O)[C@@H](C=C(CO)C[C@]3(O)C(=O)C(C)=C[C@@H]23)[C@H]2C(C)(C)[C@]12OC(C)=O [TPA, 12-O-tetradecanoylphobol-13-acetate]
[1]
  time of return of cofilin phosphorylation to original basal level: 60 min
Pancreatic acini; TPA 1 µM
  increase in amylase release: 278%

## CC(=O)O[C@H]1C(=O)[C@@]2(C)[C@H]([C@H](OC(=O)c3ccccc3)[C@]3(O)C[C@H](OC(=O)[C@H](O)[C@@H](NC(=O)c4ccccc4)c4ccccc4)C(C)=C1C3(C)C)[C@]1(OC(C)=O)CO[C@@H]1C[C@@H]2O [Paclitaxel]
[1]
  phosphorylation levels of cofilin with CCK-8 or TPA after cofilin inhibitor: significant increase in phosphorylation levels of cofilin
  inhibition of cofilin activation stimulated by CCK-8 or TPA: completely inhibited
Pancreatic acini; TPA 1 µM
  inhibition of amylase secretion stimulated by CCK-8 and TPA: completely inhibited
Pancreatic acini
  effect on basal amylase release: Neither of these two cofilin inhibitors influenced basal amylase release
